From publication PMC7921117, “Structural characterization of the microbial enzyme urocanate reductase mediating imidazole propionate production” (Nature Communications, 2021)

Legend:
UrdA′ (two-domain UrdA) [1] = target: T1, UrdA′ (two-domain UrdA) (Shewanella oneidensis, UniProt Q8CVD0); test: X-ray structure ([…] Å); activity inhibition; conditions: ADP in the FAD-binding site; no urocanate bound, glycerol in substrate site
T1 construct: clamp and FAD domains, residues 130-582, C-terminal 6xHis kept, N-terminal FMN domain absent; E. coli TUNER(DE3) (mutants BL21(DE3)); mostly monomer

UrdA′ (two-domain UrdA) [2] = target: T1, UrdA′ (two-domain UrdA); test: X-ray structure ([…] Å); type: binding; conditions: no substrate bound; sulfate in active site; FAD also in 6T87 and 6T88

T1 sequence (Q8CVD0 130-582): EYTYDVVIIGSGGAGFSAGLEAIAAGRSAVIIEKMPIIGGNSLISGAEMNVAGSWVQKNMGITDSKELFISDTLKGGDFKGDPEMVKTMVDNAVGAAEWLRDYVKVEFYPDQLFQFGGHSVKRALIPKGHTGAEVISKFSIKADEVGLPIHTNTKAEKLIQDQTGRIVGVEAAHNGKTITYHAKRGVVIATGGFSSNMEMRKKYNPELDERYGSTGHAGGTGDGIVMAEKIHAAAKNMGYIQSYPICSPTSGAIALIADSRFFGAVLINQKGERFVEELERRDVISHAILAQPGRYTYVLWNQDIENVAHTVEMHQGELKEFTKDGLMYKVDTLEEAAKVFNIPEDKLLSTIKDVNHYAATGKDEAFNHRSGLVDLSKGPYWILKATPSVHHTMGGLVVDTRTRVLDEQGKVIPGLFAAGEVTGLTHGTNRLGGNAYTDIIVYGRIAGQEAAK

Structure (SMILES) | X-ray structure (1.1 Å); activity inhibition (UrdA′ (two-domain UrdA) [1]) | X-ray structure (2.56 Å) (UrdA′ (two-domain UrdA) [2])
Nc1ncnc2c1ncn2[C@@H]1O[C@H](COP(=O)(O)OP(=O)(O)O)[C@@H](O)[C@H]1O [ADP] | supported by the ADP-induced inhibition of UrdA′ activity | –
Cc1cc2nc3c(=O)[nH]c(=O)nc-3n(C[C@H](O)[C@H](O)[C@H](O)COP(=O)(O)OP(=O)(O)OC[C@H]3O[C@@H](n4cnc5c(N)ncnc54)[C@H](O)[C@@H]3O)c2cc1C [FAD] | – | 6T86 for apo-FAD, 6T87 for uro-FAD, and 6T88 for imp-FAD
